Laboratory results reported in PubChem BioAssay AID1963851 (Molecular Pharmacology Branch, DTP, NCI, 2024).

Tested on: 188146-221-R-J1-PDC complex spheroid viability
Test: Anticancer human tumor 188146-221-R-J1-PDC patient-derived colon adenocarcinoma cell line growth inhibition [POLQ]
Details: for IC50: curve of first compound; for viability, T/C: stronger effect = lower value; active = viability on the fitted dose curve at most 10% of control; inactive = the rest
Description: Multicellular complex tumor spheroid response to Polymerase (POL) inhibitors (novobiocin, ART-558, RP6685) in combination with a variety of drugs and investigational agents in selected tumor cell lines
The POL inhibitors (novobiocin, ART-558, and RP6685) were evaluated both individually and in combination with standard of care and investigational anticancer small molecules within a complex spheroid model of solid tumors. . Complex spheroids include a stromal component modeled by human endothelial cells (HUVEC) and fibroblasts modeled by human mesenchymal stem cells (MSCs). The concentration ranges selected for each drug and investigational agent were based upon clinically achievable concentrations if the clinical Cmax of the agent was known.
Compounds. The drugs and investigational agents: novobiocin (NSC847541), ART-558 (NSC835418), RP-6685 (NSC848927), peposertib (NSC802822), ceralasertib (NSC780249), elimusertib (NSC800525), camonsertib (NSC841442), AZD-1390 (NSC803789), olaparib (NSC753686), talazoparib (NSC767125), rucaparib (NSC756644), sotorasib (NSC818433), MRTX-1133 (NSC836407), SN-38 (NSC673596), topotecan (NSC609699), epotoside (NSC141540), doxorubicin (NSC123127), gemcitabine (NSC613327), 5-fluorouracil (NSC19893), paclitaxel (NSC125973), vemurafenib (NSC761431), MSA-2 (NSC828583), SN-011 (NSC837082), adavosertib (NSC754352), prexasertib (NSC758257), carboplatin (NSC241240) and oxaliplatin (NSC266046), were obtained from the National Cancer Institute (NCI) Developmental Therapeutics Program Chemical Repository (21). The FDA-approved anticancer drug set is available from the Developmental Therapeutics Program at https://dtp.cancer.gov/organization/dscb/obtaining/. […] The stock solutions were prepared in dimethyl sulfoxide (DMSO, Sigma-Aldrich, St. Louis, MO, cat. D2650), except for the platinum compounds which were prepared in saline (Quality Biological, Gaithersburg, MD, cat. 114-055-101), at 800-fold the tested concentration and stored at -70 degrees C prior to their use. All drugs and investigational agents were tested over a range starting from a high concentration at or near the clinical Cmax and decreasing in half-log increments. If the clinical Cmax for an agent had not been determined, the highest concentration tested was 10 microM, except for SN-38, which was tested at a high concentration of 1 microM.
Cell Culture. All cells were maintained in an incubator at 37 degrees C and 5% CO2 with 95% humidity. The PDC lines were cultured according to standard operating procedures established by the NCI PDMR (https://pdmr.cancer.gov). Table 3 of the manuscript, lists the cell lines along with the number of the three cell types plated to form the mct-spheroids and media for tumor cell growth. After thawing, all PDC lines, except 997537-175-T-J1-PDC and 415267-285-R-J2-PDC, were cultured in Matrigel-coated flasks prepared with a working solution of 1X Ham's F-12 nutrient mix, without supplementation (Thermo Fisher Scientific, cat. 11765054), 100 U/mL penicillin-streptomycin (Thermo Fisher Scientific, cat. 15140122), and 2.5% Matrigel (Corning Inc., Corning, NY, cat. 354248) for the first three passages. The two PDC lines 997537-175-T-J1-PDC and 415267-285-R-J2-PDC were cultured on uncoated flasks. The 857933-349-R-J2-PDC line was cultured in 6C/Colon 1B media containing advanced DMEM/F-12 (Thermo Fisher Scientific, cat. 12634028), 10 mM HEPES (Thermo Fisher Scientific, cat. 15630080), 1X GlutaMAX supplement (Thermo Fisher Scientific, cat. 35050061), 0.1 mg/mL primocin (InvivoGen, San Diego, CA, cat. ant-pm-2), 10% defined fetal bovine serum, heat inactivated (HyClone Laboratories Inc., Logan, UT, cat. SH30070.03HI), 50% L-WRN conditioned media (ATCC, cat. CRL-3276), 1.25 mM N-Acetyl-L-cysteine (Sigma-Aldrich, cat. A9165), 10 mM nicotinamide (Sigma-Aldrich, cat. N0636), 1X B-27 supplement (Thermo Fisher Scientific, cat. 17504044), 1X N-2 supplement (Thermo Fisher Scientific, cat. […]

[1] = second compound 0.0316 µM, first compound 0.0316 µM
[2] = second compound 0.0316 µM, first compound 0.1 µM
[3] = second compound 0.1 µM, first compound 0.0316 µM
[4] = second compound 0.1 µM, first compound 0.1 µM
[5] = second compound 0.316 µM, first compound 0.0316 µM
[6] = second compound 0.316 µM, first compound 0.1 µM
[7] = second compound 1 µM, first compound 0.0316 µM
[8] = second compound 1 µM, first compound 0.1 µM
[9] = second compound 3.16 µM, first compound 0.0316 µM
[10] = second compound 3.16 µM, first compound 0.1 µM
[11] = second compound 10 µM, first compound 0.0316 µM
[12] = second compound 10 µM, first compound 0.1 µM
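Note: spheroids exposed to compounds for seven days.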

C=CC(=O)N1CCN(c2nc(=O)n(-c3c(C)ccnc3C(C)C)c3nc(-c4c(O)cccc4F)c(F)cc23)C(C)C1 (centres undefined) + COC1C(OC(N)=O)C(O)C(Oc2ccc3c(O)c(NC(=O)c4ccc(O)c(CC=C(C)C)c4)c(=O)oc3c2C)OC1(C)C
inactive: viability, T/C [1] 103% | viability, T/C [2] 97% | viability, T/C (second compound 0.0316 µM, first compound 0.316 µM) 85.7% | viability, T/C (second compound 0.0316 µM, first compound 1 µM) 99.1% | viability, T/C (second compound 0.0316 µM, first compound 3.16 µM) 98.7% | viability, T/C (second compound 0.0316 µM, first compound 10 µM) 72.4% | viability, T/C [3] 107% | viability, T/C [4] 107% | viability, T/C (second compound 0.1 µM, first compound 0.316 µM) 94.6% | viability, T/C (second compound 0.1 µM, first compound 1 µM) 105% | viability, T/C (second compound 0.1 µM, first compound 3.16 µM) 88.1% | viability, T/C (second compound 0.1 µM, first compound 10 µM) 92.6% | viability, T/C [5] 110% | viability, T/C [6] 107% | viability, T/C (second compound 0.316 µM, first compound 0.316 µM) 103% | viability, T/C (second compound 0.316 µM, first compound 1 µM) 110% | viability, T/C (second compound 0.316 µM, first compound 3.16 µM) 95.3% | viability, T/C (second compound 0.316 µM, first compound 10 µM) 83.6% | viability, T/C [7] 93.2% | viability, T/C [8] 105% | viability, T/C (second compound 1 µM, first compound 0.316 µM) 113% | viability, T/C (second compound 1 µM, first compound 1 µM) 101% | viability, T/C (second compound 1 µM, first compound 3.16 µM) 101% | viability, T/C (second compound 1 µM, first compound 10 µM) 90.4% | viability, T/C [9] 107% | viability, T/C [10] 109% | viability, T/C (second compound 3.16 µM, first compound 0.316 µM) 100% | viability, T/C (second compound 3.16 µM, first compound 1 µM) 101% | viability, T/C (second compound 3.16 µM, first compound 3.16 µM) 90.3% | viability, T/C (second compound 3.16 µM, first compound 10 µM) 87.2% | viability, T/C [11] 96% | viability, T/C [12] 107% | viability, T/C (second compound 10 µM, first compound 0.316 µM) 108% | viability, T/C (second compound 10 µM, first compound 1 µM) 97.5% | viability, T/C (second compound 10 µM, first compound 3.16 µM) 115% | viability, T/C (second compound 10 µM, first compound 10 µM) 93.7%
> 10 µM: IC50 (second compound 0.0316 µM) | IC50 (second compound 0.1 µM) | IC50 (second compound 0.316 µM) | IC50 (second compound 1 µM) | IC50 (second compound 3.16 µM) | IC50 (second compound 10 µM)

Cn1ncnc1[C@H]1c2n[nH]c(=O)c3cc(F)cc(c23)N[C@@H]1c1ccc(F)cc1 + Nc1ccc(C#CCN(C(=O)Cc2ncc(C(F)(F)F)cc2C(F)(F)F)c2ccc(F)cc2)nn1
> 0.1 µM: IC50 (second compound 0.0316 µM) | IC50 (second compound 0.1 µM) | IC50 (second compound 0.316 µM) | IC50 (second compound 1 µM) | IC50 (second compound 3.16 µM) | IC50 (second compound 10 µM)
inactive: viability, T/C (second compound 0.0316 µM, first compound 0.000316 µM) 92% | viability, T/C (second compound 0.0316 µM, first compound 0.001 µM) 109% | viability, T/C (second compound 0.0316 µM, first compound 0.00316 µM) 98.2% | viability, T/C (second compound 0.0316 µM, first compound 0.01 µM) 116% | viability, T/C [1] 98.7% | viability, T/C [2] 93.2% | viability, T/C (second compound 0.1 µM, first compound 0.000316 µM) 111% | viability, T/C (second compound 0.1 µM, first compound 0.001 µM) 104% | viability, T/C (second compound 0.1 µM, first compound 0.00316 µM) 108% | viability, T/C (second compound 0.1 µM, first compound 0.01 µM) 102% | viability, T/C [3] 100% | viability, T/C [4] 96% | viability, T/C (second compound 0.316 µM, first compound 0.000316 µM) 102% | viability, T/C (second compound 0.316 µM, first compound 0.001 µM) 103% | viability, T/C (second compound 0.316 µM, first compound 0.00316 µM) 96.7% | viability, T/C (second compound 0.316 µM, first compound 0.01 µM) 93.8% | viability, T/C [5] 112% | viability, T/C [6] 98.9% | viability, T/C (second compound 1 µM, first compound 0.000316 µM) 100% | viability, T/C (second compound 1 µM, first compound 0.001 µM) 107% | viability, T/C (second compound 1 µM, first compound 0.00316 µM) 109% | viability, T/C (second compound 1 µM, first compound 0.01 µM) 94.5% | viability, T/C [7] 95.2% | viability, T/C [8] 97.2% | viability, T/C (second compound 3.16 µM, first compound 0.000316 µM) 106% | viability, T/C (second compound 3.16 µM, first compound 0.001 µM) 99.3% | viability, T/C (second compound 3.16 µM, first compound 0.00316 µM) 95.9% | viability, T/C (second compound 3.16 µM, first compound 0.01 µM) 91.7% | viability, T/C [9] 95.8% | viability, T/C [10] 93% | viability, T/C (second compound 10 µM, first compound 0.000316 µM) 108% | viability, T/C (second compound 10 µM, first compound 0.001 µM) 95.3% | viability, T/C (second compound 10 µM, first compound 0.00316 µM) 116% | viability, T/C (second compound 10 µM, first compound 0.01 µM) 119% | viability, T/C [11] 109% | viability, T/C [12] 90.1%
